# Assay results taken from article PMC12408683 (Archives of Toxicology, 2025).
# Where two headings read alike, the source gives them in different places.
# Columns and labels:
# HepG2 cells [1] = assay: DNA adduct quantification by UHPLC-MS/MS in HepG2 cells; format: cell-based, human; conditions: for E3′-N^2-dG adducts / E3′-N^6-dA adducts: 24 h
# Procedure: (§1) To this end, 6 × 10^6 cells were seeded per 10 cm dish and allowed to attach overnight. […] The pellets were washed with phosphate-buffered saline (PBS) and stored at – 20 °C until further use. DNA was isolated as described previously (Carlsson et al. [2022]) and DNA concentration as well as purity were determined with the NanoDrop ND1000 photometer (Thermo Scientific, Waltham MA, USA). As a next step, 30 µg DNA of each sample was digested overnight at 37 °C with micrococcal nuclease (Worthington, Lakewood NJ, USA) and phosphodiesterase II (Worthington, Lakewood NJ, USA) as reported (Carlsson et al. [2022]). Afterwards ^15N-E3′-N^2-dG (2 nM), ^15N-E3′-N^6-dA (0.5 nM) as well as ^15N-dG (20 µM) (Silantes, München, Germany) were added as internal standards. The isotope-labelled internal DNA adduct standards and external DNA adduct standard were synthesised as previously described (Schumacher et al. [2013]). Subsequently, the samples were incubated overnight at 37 °C with alkaline phosphatase (Sigma-Aldrich, St. Louis MO, USA), followed by precipitation of remaining proteins with ethanol and centrifugation at 20,800 g. The supernatant was narrowed down in a vacuum centrifuge (Eppendorf concentrator plus, Eppendorf, Hamburg, Germany) at 60 °C and 1400 g for 2–4 h and the resulting pellet was dissolved in 75% methanol. After another centrifugation step, the solution was transferred into glass vials with inserts.
# (§2) The DNA adducts were measured via UHPLC–MS/MS with a multiple reaction method (MRM) using a UHPLC system (Agilent 1290 infinity; Agilent Technologies, Santa Clara CA, USA) consisting of a binary pump (G4220A), an autosampler (G4226A) and a column oven (G1316C). The eluent consisted of 0.1% acetic acid and UHPLC grade methanol. Injection volume was 5 μL and the flow rate was 0.2 mL/min. The gradients are shown in the supporting information, Fig. 2A, B. As a separation column, a Waters XTerraMS C18 2.5 µm (2.1 × 50 mm) was used at 35 °C. The UHPLC was coupled to the Sciex QTrap 5500 MS using a declustering potential of 91 V, an entrance potential of 10 V, a collision energy of 33 V, a collision cell entrance potential of 10 V, curtain gas of 25 psi, an ion spray voltage of 5500 V, a temperature of 550 °C, and an ion source gas of 35 psi as specific mass spectrometry parameters. Measurement was performed with an electron spray ionisation in positive mode using MRM to quantify both adducts. For further quantification of the adduct levels, a standard curve of both adducts was carried along ranging from 60 to 100,000 pM, also containing isotope-labelled standards for reference. Furthermore, the dG-content of each sample was determined via LC–MS/MS with stable isotope dilution analysis to normalise the adduct levels to the overall nucleoside content (Carlsson et al. [2022]; Stegmüller et al. [2018]). The limit of detection (LOD) and the limit of quantification (LOQ) for E3′-N^2-dG and E3′-N^6-dA are provided in supplementary Table S1. The specific compound parameters for both methods are provided in supplementary Table S2.
# (§3) As benchmark response (BMR) for all concentration–response curves (adducts, micronuclei), a 2.0-fold increase vs. solvent control was used (BMC100, critical effect size = 1). The determined BMC100 and the corresponding upper and lower boundary (BMCU and BMCL, respectively) of the 90% confidence interval (CI) were used for potency comparison.
# [2] = test system: primary rat hepatocytes (PRH); conditions: read-out: EC50 (cell viability); 24 h
# Procedure: The cell viability was calculated relative to the negative control (set to 100%).
# HepG2 cells [3] = conditions: 24 h
# Procedure: (§4) γH2AX and p53 levels were assessed by SDS-PAGE and western blotting as reported (Fahrer et al. [2013]). To this end, 5 × 10^5 cells were seeded in 3.5-cm dishes to adhere overnight. […] Proteins were separated by SDS-PAGE followed by the transfer onto a nitrocellulose membrane using the wet blot method. The successful transfer was confirmed by Ponceau S staining of the membrane before blocking with 5% non-fat dry milk in Tris-buffered saline with Tween-20 (MP-TBS-T). Subsequently, the membrane was incubated with the respective primary antibodies overnight at 4 °C. The membranes were washed three times for 5 min with TBS-T before incubating with the respective secondary antibody coupled with horseradish peroxidase. The detection was carried out using the Western Lightning Plus-ECL reagent (Perkin Elmer, Waltham MA, USA) with the c300 chemiluminescence imager (Azure Biosystems, Dublin CA, USA). The used primary and secondary antibodies are detailed in supplementary Table S3.
# HepG2 cells [4] = conditions: for MN formation, increase (flow cytometry): 24 h + 72 h recovery
# Procedure: DMSO served as solvent control, while MMC was used as a positive control. […] Following the recovery time, the cells were detached, harvested by centrifugation (300 g, 5 min), and washed with PBS. […] The fluorescent dye was then activated by photolysis (60 W lightbulb, 30 cm spacing) for 20 min before addition of 9 mL PBS to remove unbound dye. […] 1.5 × 10^4 cells were analysed using the BD FACSDiva software (BD Biosciences, Heidelberg, Germany).
# [5] = parameters: method as in Yang et al. 2021; conditions: PBPK modelling, dietary uptake 0.01 mg/kg bw and day; ref Yang et al. 2021; cited from earlier work
# male F344 gpt delta rats = test system: male F344 gpt delta rats; parameters: method as in Suzuki et al. 2012a; conditions: top dose 200 mg ES/kg bw for 4 weeks; ref Suzuki et al. 2012a; cited from earlier work
# HepG2-CYP1A2 cells [6] = assay: DNA adduct quantification by UHPLC-MS/MS in HepG2-CYP1A2 cells; format: cell-based, human
# Procedure: as §1, §2, §3
# HepG2-CYP1A2 cells [7] = assay: Western blot of γH2AX and p53 in HepG2-CYP1A2 cells; conditions: 24 h
# Procedure: as §4
# rats = test system: rats; parameters: method as in Nesslany et al. 2010; conditions: up to 2 g ES/kg bw by oral gavage; ref Nesslany et al. 2010; cited from earlier work
# [8] = endpoint E3′-N^2-dG, BMR 2.0-fold increase, 90% CI
# [9] = endpoint MN (FCM), BMR 2.0-fold increase, 90% CI
# [10] = endpoint E3′-N^2-dG, BMR 2.0-fold increase, 90% CI, PROAST
smiles,measurement,setting,value
"C=CC(O)c1ccc(OC)cc1 (stereo not shown) [1′OH-ES, 1′-hydroxyestragole]",E3′-N^2-dG adducts,HepG2 cells [1]; 0.1 µM 1′OH-ES,24 adducts/10^8 ncs
same,E3′-N^2-dG adducts,HepG2 cells [1]; 25 µM 1′OH-ES,2237 adducts/10^8 ncs
same,E3′-N^6-dA adducts,HepG2 cells [1]; 25 µM 1′OH-ES,64 adducts/10^8 ncs
same,E3′-N^2-dG adducts,HepG2 cells [1]; 35 µM 1′OH-ES,6881 adducts/10^8 ncs
same,E3′-N^6-dA adducts,HepG2 cells [1]; 35 µM 1′OH-ES,139 adducts/10^8 ncs
same,E3′-N^2-dG levels vs equimolar ES concentrations,"HepG2 cells [1]; 1′OH-ES in HepG2 vs ES in HepG2-CYP1A2, 24 h",10–50 fold
same,BMC100,"HepG2 cells [1]; endpoint E3′-N^2-dG, BMR 2.0-fold increase",2.65 µM
same,BMCL,HepG2 cells [1]; [8],0.75 µM
same,BMCU,HepG2 cells [1]; [8],5.65 µM
same,genotoxic and mutagenic potency compared to the parent compound ES,HepG2 cells [1]; from BMC modelling,20–30 fold
same,E3′-N^2-dG adduct level corresponding to significant cytotoxicity,HepG2 cells [1]; highest 1′OH-ES concentration,6881 adducts/10^8 ncs
same,E3′-N^2-dG adduct level at which a twofold MN increase was observed,"HepG2 cells [1]; molecular dosimetry, flow cytometry and CBMN",420–2237 adducts/10^8 ncs
same,concentrations reaching the adduct level required to impair viability,HepG2 cells [1]; more than 6000 E3′-N^2-dG adducts/10^8 ncs,≥ 35 µM
same,E3′-N^2-dG adducts required to impair viability and trigger cell death,HepG2 cells [1]; not reached by ES,more than 6000 adducts/10^8 ncs
same,EC50,[2],23 µM
same,γH2AX increase,HepG2 cells [3]; 5 µM 1′OH-ES,2.2 fold
same,p53 induction,HepG2 cells [3]; 50 µM 1′OH-ES,sevenfold
same,γH2AX induction,HepG2 cells [3]; 50 µM 1′OH-ES,4.8 fold
same,"MN formation, increase (flow cytometry)",HepG2 cells [4]; 25 µM 1′OH-ES,twofold
same,"MN formation, increase (flow cytometry)",HepG2 cells [4]; 50 µM 1′OH-ES,4.6 fold
same,concentrations at which clastogenicity was observed,HepG2 cells [4]; CBMN and MN flow assay,≥ 25 µM
same,BMC100,"HepG2 cells [4]; endpoint MN (FCM), BMR 2.0-fold increase",29.8 µM
same,BMCL,HepG2 cells [4]; [9],21.1 µM
same,BMCU,HepG2 cells [4]; [9],37.6 µM
"C=CCc1ccc(OC)cc1 [ES, estragole]",predicted ES concentration in liver venous blood,[5],0.01 µM
same,"mutagenicity, increase vs. control",male F344 gpt delta rats,twofold
same,"E3′-N^2-dG adducts, change vs maximum level","HepG2-CYP1A2 cells [6]; 2 mM ES (highest treatment group), 24 h",moderate decline
same,E3′-N^6-dA adduct (minor DNA adduct),"HepG2-CYP1A2 cells [6]; any tested ES concentration (up to 2 mM), 24 h",neither quantifiable nor detectable
same,BMCL,HepG2-CYP1A2 cells [6]; [10],18.9 µM
same,BMCU,HepG2-CYP1A2 cells [6]; [10],104 µM
same,BMC100,"HepG2-CYP1A2 cells [6]; endpoint E3′-N^2-dG, BMR 2.0-fold increase, PROAST",63.3 µM
same,γH2AX induction vs. control,HepG2-CYP1A2 cells [7]; 250 µM ES,threefold
same,p53 accumulation,HepG2-CYP1A2 cells [7],No p53 accumulation
same,"MN levels, study outcome",rats,negative
